PMC11959706, “Allatostatin-C signaling in the crab Carcinus maenas is implicated in the ecdysis program” (The Journal of Experimental Biology, 2025)
Several values for one entry are separate records, joined by “and”; a condition that tells them apart may be missing. Equal values may be shown once. Bridge positions count the residues as written; N and C are the ends. Ends that are not written are not given here.

Legend:
[1] = test system: semi-isolated heart preparations; test: Semi-isolated heart preparation bioassay; design: species or system Carcinus maenas; settings: 10^−6 mol l^−1 in saline, 20°C, recorded about 2 min; four preparations
Description: To determine possible myotropic and/or myoinhbitory activity of AST-C, AST-CC and AST-CCC, inter-molt crabs (∼65 mm carapace width) were ice-anaesthetized and rapidly decerebrated before removing all limbs and the dorsal carapace to expose the heart and pericardial cavity. The preparation was then fitted into a bowl lined with tissue, to provide a stable saline-flooded environment. The heart was connected to a force transducer (MLT0210/A) via a micro-fishing hook (size 28) and fine nylon (0.08 mm) monofilament. Connection to a PC with Chart 4.0 software was via a Bridge Pod (ML301) and Powerlab 4/20 (AD Instruments, Castle Hill, NSW, Australia). Transducer gain was set at maximum sensitivity (200 μV). Heart preparations were initially perfused with Carcinus physiological saline ([Saver et al., 1999]) at room temperature (20°C). Once a stable output was achieved, hearts were then perfused by sequentially adding approximately 2 ml saline containing AST-C, AST-CC and AST-CCC (GenScript Biotech, Piscataway, NJ, USA), and finally adding CCAP as a positive control (all peptides were at a concentration of 10^−6 mol l^−1 in saline). Each peptide addition was followed by extensive washout with saline, recording heart rate and beat amplitude for approximately 2 min after application of each peptide.

AST-CRd (TR71151) = test: Aequorin luminescence receptor assay, CHO-K1-Aeq-Gα16 cells transiently expressing AST-CRd; type: cell-based, Carcinus maenas; settings: for Activation of AST-CRd at saturating doses: 10, 1 µmol l^−1 peptide, quadruplicate
Description: The transcriptome of neural tissue of C. maenas, which has been previously assembled ([Oliphant et al., 2018]), identified four putative AST-C receptor candidates: TR71151a-d ([Oliphant et al., 2018]). These were chemically synthesized with a modified 5′ Kozak sequence (GAATTCGCCACC) and cloned in frame into a pcDNA3.1(+) plasmid vector (Genscript, Piscataway, NJ, USA). Separate aliquots of OneShot TOP10® E. coli cells (Invitrogen, Paisley, UK) were transformed with the plasmids and grown on LB plates containing 100 µg ml^−1 ampicillin overnight at 37°C. Positive clones were cultured overnight in LB broth with 100 µg ml^−1 ampicillin at 37°C and plasmids extracted using a Qiagen Plasmid Midiprep kit according to the manufacturer's instructions. Purified plasmids were re-sequenced (MWG Eurofins, Ebersberg, Germany) and analyzed using Geneious 9.1.8 ([Kearse et al., 2012]).
Chinese hamster ovary (CHO-K1) cells containing stably expressed apoaequorin (Perkin Elmer, Boston, MA) and either Gα16 or Gq subunit (control cells) were cultured in Dulbecco's Modified Eagle Medium (DMEM) F-12 Nutrient Mixture Glutamax (Gibco®) supplemented with 10% fetal bovine serum (Gibco®). Cells were maintained in vented T75 flasks at 37°C in 5% CO2. Cells grown in a monolayer to approximately 60% confluency were transfected with pcDNA 3.1 constructs using FugeneHD® (Promega) according to the manufacturer's recommendations. Transfection medium was prepared by combining 800 µl Opti-MEM® (Gibco) with 10 µg vector and the cells further incubated overnight. Cells were detached from the culture flask by incubating for 10 min in 5 ml 0.2% EDTA in PBS, washed in 10 ml clear DMEM–F-12 containing L-glutamine and 15 mmol l^−1 HEPES, centrifuged (for 5 min at 260 g) and resuspended at a concentration of 5×10^6 cells ml^−1 in 0.2 µm filtered BSA medium (DMEM–F-12 containing L-glutamine, 15 mmol l^−1 HEPES and 0.1% BSA). Coelenterazine h (Invitrogen, Paisley, UK) was added to give a concentration of 5 µmol l^−1, and the cells incubated in the dark at room temperature with gentle rocking. Before the assay, cells were further diluted (10-fold) and incubated for 60 min before use. Dried aliquots of peptides were reconstituted in BSA medium, and 50 µl added in quadruplicate to a white 96-well plate (Optiplate®, Perkin Elmer). Cell suspensions were gently stirred and injected (50 µl per well) using a Mithras LB 940 microplate reader (Berthold Technologies, Bad Wildbad, Germany) and light emission (Ca^2+ response recorded for 30 s). Cells were then lysed by injection of 50 µl per well 0.3% Triton-X in BSA medium, and light emission recorded for a further 10 s to measure total Ca^2+ response. BSA medium was used for blank measurements (six replicates per plate) and transfection with empty vectors was used for negative controls. Data were analyzed using Mikrowin 2010 v5 (Mikrotek Laborsysteme, Overath, Germany) and SigmaPlot v15 (Systat Software, Grafiti, Slough, UK).

vitellogenesis = settings: S. paramamosain; ref Liu et al., 2019; cited from earlier work
Description: It is likely that vitellogenesis takes place during inter-molt in this species, as it does in C. maenas ([Styrishave et al., 2008]), a closely related portunid crab. Since AST-C and likely AST-CC are only ephemerally released during the completion of ecdysis in the latter species, involvement of AST-C in inhibition of vitellogenesis seems entirely improbable, and it is extremely unlikely that in vivo injection of AST-C, as reported by [Liu et al. (2019)], has any biological relevance i ...

YOs = test system: YOs; design: method as in Liu et al., 2021; settings: 10^−6 M; S. paramamosain; EIA measuring 20-hydroxyecdysone; ref Liu et al., 2021; cited from earlier work
AST-C receptor = settings: S. paramamosain AST-C receptor, CRE-Luc reporter, HEK293; ref Liu et al., 2021; cited from earlier work
Description: For decapod crustaceans, the only other AST-C receptors that have been functionally de-orphaned are those from Cancer borealis, using EGFP fused to the C-terminus of the AST-C receptor and expression in Spodoptera frugiperda SF9 cells ([Dickinson et al., 2019]), and from H. americanus, using chimeric EGFP constructs in Tricoplusia ni cells.

Row | Substance | Effect on heartbeat amplitude [1] | Effect on heartbeat frequency (heart rate) [1] | Activation of AST-CRd at saturating doses (AST-CRd (TR71151)) | ED50, luminescence response (AST-CRd (TR71151); CHO-K1-Aeq-Gα16 cells transiently expressing AST-CRd, assayed in quadruplicate, two independent experiments, approximate values) | Effect of in vivo injection on vitellogenesis (vitellogenesis) | Effect on ecdysteroid synthesis by YOs in vitro (YOs) | ED50, receptor activation (AST-C receptor)
1 | GNGDGRLYWRCYFNAVSCF (disulfide 11-18 (inferred)) [AST-CC, C. maenas AST-C family neuropeptide; synthetic (GenScript)] | entirely unaffected | entirely unaffected | equally active | 2 nM and 2 to 6 nM |  |  | 
2 | pQIRYHQCYFNPISCF (disulfide) [AST-C, allatostatin-C, C. maenas AST-C family neuropeptide with C-terminal PISCF motif; synthetic (GenScript)] | entirely unaffected | entirely unaffected | equally active |  | inhibits vitellogenesis | slightly inhibit | ~6 nM
